# Data as given in patent publication US20050107311A1, “Buffalo milk gangliosides” (priority 2001, published 2005).
# How the values were obtained:
# [1] = biological target: B-subunit of cholera toxin (CTB) (Vibrio cholerae serotype O1, UniProt P01556)
# nar-3, a rotavirus toxin = test: Binding to rotavirus toxin nar-3; conditions: GD3 from Folch LP vs UP
# rotavirus particles = test: Binding to rotavirus particles
# Sequence of B-subunit of cholera toxin (CTB) (P01556 22-124 limits assumed): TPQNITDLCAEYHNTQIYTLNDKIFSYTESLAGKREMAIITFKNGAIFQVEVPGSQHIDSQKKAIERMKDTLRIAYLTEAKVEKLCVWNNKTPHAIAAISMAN
Substance,binding of cholera toxin subunit B (CTB) [1],"binding to nar-3 (nar-3, a rotavirus toxin)",other results
GD1a,not capable of binding the toxin,,
GD3 [GD3 isolated from the aqueous UP],,did not bind to this toxin,
GD3 [GD3 species isolated from the organic LP],,bound to nar-3,
GM1 [GM1 isolated from buffalo milk serum],binds to cholera toxin subunit B,,
GM1 [bovine-brain GM1 species],bind CTB,,
GM3 [GM3 species],,,binding of rotavirus particles (rotavirus particles): bind rotavirus particles
